Measured values from US20260184675A1, “CHIRAL ISOMERIC SULFITE COMPOUND AND APPLICATION THEREOF” (Chengdu Hanova BioSciences Co., Ltd, priority 2024, published 2026).

Legend:
Assay type in all cases: in vivo
eggs of Thrips = experiment: Effect on hatching of eggs of Thrips, leaf disc method; details: 100 ppm; for Hatching rate (%): 5 days after insecticide delivery
Procedure, shortened: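 Thrip egg hatching was tested by the leaf disc method on Vicia faba discs 2.0 cm across, placed over wetted filter paper. Egg numbers on each disc were counted under a microscope before treatment. Discs were then dipped for 10 seconds in clean water or a compound solution at 100 ppm. They were kept moist under normal conditions, and hatching was surveyed five days after insecticide delivery.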

[1] = tested on: eggs of Tetranychus urticae; experiment: Effect on hatching of eggs of Tetranychus urticae, leaf disc method; details: 5 ppm; for Hatching rate (%): 5 days after insecticide delivery
Procedure, shortened: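 Twenty adult female Tetranychus urticae mites were placed on 2.0 cm Vicia faba leaf discs over wetted filter paper in lidded dishes kept moist, and removed within 36 hours. Eggs on each disc were counted under a microscope. The egg-bearing discs were dipped for 10 seconds in a compound solution at 5 ppm or in clear water, then kept moist, and hatching was checked five days after treatment.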

eggs of Panonychus citri = experiment: Effect on hatching of eggs of Panonychus citri, leaf disc method; details: 1 ppm; for Hatching rate (%), Replicate 1 / Hatching rate (%), Replicate 2 / Hatching rate (%), Replicate 3 / Number of hatched larvae 5 days after insecticide delivery, Replicate 1 / Number of hatched larvae 5 days after insecticide delivery, Replicate 2 / Number of hatched larvae 5 days after insecticide delivery, Replicate 3: Panonychus citri eggs; for Hatching rate (%), Replicate 1 / Hatching rate (%), Replicate 2 / Hatching rate (%), Replicate 3: 5 days after delivery; for Number of hatched larvae 5 days after insecticide delivery, Replicate 1 / Number of hatched larvae 5 days after insecticide delivery, Replicate 2 / Number of hatched larvae 5 days after insecticide delivery, Replicate 3: leaf disc
[2] = tested on: eggs of Spodoptera litura; experiment: Effect on hatching of eggs of Spodoptera litura, egg piece soaking; details: 500 ppm; for Hatching rate (%), Replicate 1 / Hatching rate (%), Replicate 2 / Hatching rate (%), Replicate 3 / Number of unhatched larvae 4 days after insecticide delivery, Replicate 1 / Number of unhatched larvae 4 days after insecticide delivery, Replicate 2 / Number of unhatched larvae 4 days after insecticide delivery, Replicate 3: Spodoptera litura eggs; for Hatching rate (%), Replicate 1 / Hatching rate (%), Replicate 2 / Hatching rate (%), Replicate 3: 4 days after delivery; for Number of unhatched larvae 4 days after insecticide delivery, Replicate 1 / Number of unhatched larvae 4 days after insecticide delivery, Replicate 2 / Number of unhatched larvae 4 days after insecticide delivery, Replicate 3: soaked 10 minutes
Procedure, shortened: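 Egg pieces of about 60 eggs were soaked 10 min in test agent at 500 ppm, blotted, then held singly at 24±1 °C, 80±10% RH, 12:12 L:D. Hatched and unhatched eggs were counted on day 4 to give hatching rate and control effect; 3 replicates.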

[3] = Replicate 1, listed as 19′-(S, S)
[4] = Replicate 2, listed as 19′-(S, S)
[5] = Replicate 3, listed as 19′-(S, S)
[6] = Replicate 1, listed as 1-(R, R)
[7] = Replicate 2, listed as 1-(R, R)
[8] = Replicate 3, listed as 1-(R, R)

## CC(C)(COS(=O)OCCF)Oc1ccc(Cl)cc1Cl (stereo not drawn) [Compound 10′]
Eggs of Thrips
  inhibitory activity on the hatching of eggs of Thrips (in words): strong inhibitory activities
Eggs of Thrips; Replicate 1
  Hatching rate (%): 0.00%
  Number of hatched larvae 5 days after insecticide delivery: 0
Eggs of Thrips; Replicate 2
  Hatching rate (%): 1.55%
  Number of hatched larvae 5 days after insecticide delivery: 2
Eggs of Thrips; Replicate 3
  Hatching rate (%): 0.00%
  Number of hatched larvae 5 days after insecticide delivery: 0
[1]
  inhibitory activity on the hatching of eggs of Tetranychus urticae (in words): strong inhibitory activities
[1]; Replicate 1
  Hatching rate (%): 1.18%
  Number of hatched larvae 5 days after insecticide delivery: 1
[1]; Replicate 2
  Hatching rate (%): 1.10%
  Number of hatched larvae 5 days after insecticide delivery: 1
Eggs of Panonychus citri
  inhibitory effect on the hatching of eggs of Panonychus citri (in words): good inhibitory effects
  Hatching rate (%), Replicate 1: 0.00%
  Hatching rate (%), Replicate 2: 0.73%
  Hatching rate (%), Replicate 3: 0.92%
  Number of hatched larvae 5 days after insecticide delivery, Replicate 1: 0
  Number of hatched larvae 5 days after insecticide delivery, Replicate 2: 1
  Number of hatched larvae 5 days after insecticide delivery, Replicate 3: 1
[2]
  Hatching rate (%), Replicate 1: 40.63%
  Hatching rate (%), Replicate 2: 41.94%
  Hatching rate (%), Replicate 3: 42.37%
  Number of unhatched larvae 4 days after insecticide delivery, Replicate 1: 38
  Number of unhatched larvae 4 days after insecticide delivery, Replicate 2: 36
  Number of unhatched larvae 4 days after insecticide delivery, Replicate 3: 34

## CC(C)(COc1ccc(Cl)cc1Cl)OS(=O)OCCF (stereo not drawn) [Compound R-10]
Eggs of Thrips; Replicate 1
  Hatching rate (%): 15.31%
  Number of hatched larvae 5 days after insecticide delivery: 15
Eggs of Thrips; Replicate 2
  Hatching rate (%): 14.50%
  Number of hatched larvae 5 days after insecticide delivery: 19
Eggs of Thrips; Replicate 3
  Hatching rate (%): 14.53%
  Number of hatched larvae 5 days after insecticide delivery: 17
[1]; Replicate 1
  Hatching rate (%): 18.06%
  Number of hatched larvae 5 days after insecticide delivery: 13
[1]; Replicate 2
  Hatching rate (%): 16.13%
  Number of hatched larvae 5 days after insecticide delivery: 15
Eggs of Panonychus citri
  Hatching rate (%), Replicate 1: 9.65%
  Hatching rate (%), Replicate 2: 9.78%
  Hatching rate (%), Replicate 3: 10.37%
  Number of hatched larvae 5 days after insecticide delivery, Replicate 1: 11
  Number of hatched larvae 5 days after insecticide delivery, Replicate 2: 9
  Number of hatched larvae 5 days after insecticide delivery, Replicate 3: 14
[2]
  Hatching rate (%), Replicate 1: 60.87%
  Hatching rate (%), Replicate 2: 64.15%
  Hatching rate (%), Replicate 3: 62.07%
  Number of unhatched larvae 4 days after insecticide delivery, Replicate 1: 27
  Number of unhatched larvae 4 days after insecticide delivery, Replicate 2: 19
  Number of unhatched larvae 4 days after insecticide delivery, Replicate 3: 22

## CC[C@@H](COS(=O)OCCF)Oc1ccc(Cl)cc1Cl (stereo partly drawn) [19′-(S,S)]
Eggs of Thrips
  inhibitory activity on the hatching of eggs of Thrips (in words): strong inhibitory activities
Eggs of Thrips; [3]
  Hatching rate (%): 0.00%
  Number of hatched larvae 5 days after insecticide delivery: 0
Eggs of Thrips; [4]
  Hatching rate (%): 0.00%
  Number of hatched larvae 5 days after insecticide delivery: 0
Eggs of Thrips; [5]
  Hatching rate (%): 0.00%
  Number of hatched larvae 5 days after insecticide delivery: 0
[1]
  inhibitory activity on the hatching of eggs of Tetranychus urticae (in words): strong inhibitory activities
[1]; [3]
  Hatching rate (%): 0.00%
  Number of hatched larvae 5 days after insecticide delivery: 0
[1]; [4]
  Hatching rate (%): 0.00%
  Number of hatched larvae 5 days after insecticide delivery: 0
Eggs of Panonychus citri
  inhibitory effect on the hatching of eggs of Panonychus citri (in words): good inhibitory effects
Eggs of Panonychus citri; listed as 19′-(S, S)
  Hatching rate (%), Replicate 1: 0.00%
  Hatching rate (%), Replicate 2: 0.00%
  Hatching rate (%), Replicate 3: 0.00%
  Number of hatched larvae 5 days after insecticide delivery, Replicate 1: 0
  Number of hatched larvae 5 days after insecticide delivery, Replicate 2: 0
  Number of hatched larvae 5 days after insecticide delivery, Replicate 3: 0
[2]
  inhibitory activity on the hatching of eggs of Spodoptera litura (in words): good inhibitory activities
[2]; listed as 19′-(S, S)
  Hatching rate (%), Replicate 1: 17.54%
  Hatching rate (%), Replicate 2: 19.70%
  Hatching rate (%), Replicate 3: 18.87%
  Number of unhatched larvae 4 days after insecticide delivery, Replicate 1: 47
  Number of unhatched larvae 4 days after insecticide delivery, Replicate 2: 53
  Number of unhatched larvae 4 days after insecticide delivery, Replicate 3: 43

## C[C@H](COS(=O)OCCF)Oc1ccc(Cl)cc1Cl (stereo partly drawn) [1-(R,R)]
Eggs of Thrips
  inhibitory activity on the hatching of eggs of Thrips (in words): strong inhibitory activities
Eggs of Thrips; [6]
  Hatching rate (%): 0.00%
  Number of hatched larvae 5 days after insecticide delivery: 0
Eggs of Thrips; [7]
  Hatching rate (%): 0.00%
  Number of hatched larvae 5 days after insecticide delivery: 0
Eggs of Thrips; [8]
  Hatching rate (%): 0.00%
  Number of hatched larvae 5 days after insecticide delivery: 0
[1]
  inhibitory activity on the hatching of eggs of Tetranychus urticae (in words): strong inhibitory activities
[1]; [6]
  Hatching rate (%): 0.00%
  Number of hatched larvae 5 days after insecticide delivery: 0
[1]; [7]
  Hatching rate (%): 0.00%
  Number of hatched larvae 5 days after insecticide delivery: 0
Eggs of Panonychus citri
  inhibitory effect on the hatching of eggs of Panonychus citri (in words): good inhibitory effects
Eggs of Panonychus citri; listed as 1-(R, R)
  Hatching rate (%), Replicate 1: 0.00%
  Hatching rate (%), Replicate 2: 0.00%
  Hatching rate (%), Replicate 3: 0.00%
  Number of hatched larvae 5 days after insecticide delivery, Replicate 1: 0
  Number of hatched larvae 5 days after insecticide delivery, Replicate 2: 0
  Number of hatched larvae 5 days after insecticide delivery, Replicate 3: 0
[2]
  inhibitory activity on the hatching of eggs of Spodoptera litura (in words): good inhibitory activities
[2]; listed as 1-(R, R)
  Hatching rate (%), Replicate 1: 22.39%
  Hatching rate (%), Replicate 2: 21.05%
  Hatching rate (%), Replicate 3: 23.73%
  Number of unhatched larvae 4 days after insecticide delivery, Replicate 1: 47
  Number of unhatched larvae 4 days after insecticide delivery, Replicate 2: 45
  Number of unhatched larvae 4 days after insecticide delivery, Replicate 3: 45
